Laboratory results reported in ChEMBL document CHEMBL4888484, “Replenishing the malaria drug discovery pipeline: Screening and hit evaluation of the MMV Hit Generation Library 1 (HGL1) against asexual blood stage Plasmodium falciparum ,using a nano luciferase reporter read-out” (2022).

Legend:
Plasmodium falciparum [1] = assay: Hit confirmation in dose-response curve in NF54 nanoGlo assay, at 72h; type: functional, organism-based, Erythrocyte; design: timepoint 72 hour; details: Plasmodium falciparum, NF54, Erythrocyte, 72 h
Plasmodium falciparum [2] = assay: Hit confirmation in dose-response curve in NF54 pLDH assay, at 72h; type: functional, organism-based; design: timepoint 72 hour; details: NF54, Erythrocyte
[3] = Hit confirmation in dose-response curve in HepG2 cytotoxicity assay, at 72h; type: toxicity, cell-based; design: timepoint 72 hour; details: human, HepG2 cells
Plasmodium falciparum [4] = assay: Hit confirmation in dose-response curve in NF54 nanoGlo assay, at 12h; type: functional, organism-based, Erythrocyte; design: timepoint 12 hour; details: Plasmodium falciparum, NF54, Erythrocyte, 12 h
Plasmodium falciparum [5] = assay: Hit confirmation in dose-response curve in Dd2 pLDH assay, at 72h; type: functional, organism-based; design: timepoint 72 hour; details: Dd2, Erythrocyte

Row | Compound | IC50 (Plasmodium falciparum [1]) | IC50 (Plasmodium falciparum [2]) | IC50 at 72 h [3] | IC50 (Plasmodium falciparum [4]) | IC50 (Plasmodium falciparum [5])
1 | COC[C@H](NCCc1cc(F)cc2c1OCOC2)C1CC1 | 0.661 µM | 0.891 µM | > 10 µM | > 10 µM | > 10 µM
2 | CCc1cccc(NC(=O)N2CCC3(CC2)C(=O)N(CC(=O)Nc2ccc(F)cc2)CN3c2ccccc2)c1 | 3.02 µM | 10.7 µM | > 10 µM | 2.95 µM | 6.76 µM
3 | COc1ccccc1-n1c(=O)n(C2CCCC2)c(=O)c2c1ncn2Cc1ccccc1Cl | 3.02 µM | 10 µM | > 10 µM | > 10 µM | 9.55 µM
4 | N[C@H]1C[C@H](c2cc(NCCCc3cccnc3)nc(C3CC3)n2)C1 | 1.58 µM | 2 µM | > 10 µM | 3.55 µM | 2.04 µM
5 | N#Cc1cccc(-c2n[nH]c3c2CN(c2ccc(-c4ccccc4)nn2)CC3)c1 | 1.2 µM | 4.79 µM | > 10 µM | 2.63 µM | 3.09 µM
6 | CC(C)Nc1nc2nonc2n2cnnc12 | 1.95 µM | 4.37 µM | > 10 µM | 4.47 µM | 3.55 µM
7 | NC1CC(NCCc2cccc3cccnc23)c2ccccc21 (stereo not given) | 2.45 µM | 7.76 µM | > 10 µM | 5.01 µM | 5.75 µM
8 | c1cc(-c2nc3cc4ccccc4cc3[nH]2)nc(-c2nc3cc4ccccc4cc3[nH]2)c1 | 0.513 µM | 1.15 µM | 8.32 µM | 0.977 µM | 1.95 µM
9 | COc1ccc(CN(Cc2ccncc2)CC2CCN(C3CCN(C)CC3)CC2)c(F)c1 | 1.29 µM | 1.45 µM | > 10 µM | 2.82 µM | 1.17 µM
10 | Cc1cc(=O)[nH]c(-n2nc(C3CC3)cc2NC(=O)c2ccc(C(C)(C)C)cc2)n1 | 1.86 µM | > 10 µM | > 10 µM | > 10 µM | > 10 µM
11 | CCCN1C(=O)c2ccccc2N2C(=O)CC[C@@]12C(=O)Nc1ccc(OC)cc1 | 1.45 µM | 3.47 µM | > 10 µM | 1.38 µM | 2.75 µM
12 | CC(C)CCn1nnnc1[C@]1(N(C)C)CCCN(C(=O)c2cccn2C)C1 | 0.309 µM | > 10 µM | > 10 µM | 0.275 µM | > 10 µM
13 | C[N+]1(CCCC(=O)c2ccc3c(c2)OCCO3)CCC(c2ccccc2)C1 (stereo not given) | 2.57 µM | 3.8 µM | > 10 µM | > 10 µM | 2.24 µM
14 | O=C(c1ccccc1F)N(Cc1nccn1Cc1c(F)cccc1Cl)C1CC1 | 2.75 µM | 6.92 µM | > 10 µM | 1.32 µM | > 10 µM
15 | COc1ccc(-[n+]2c(-c3ccccc3)cn3c2CCC3)cc1 | 0.794 µM | 1.41 µM | > 10 µM | > 10 µM | 0.776 µM
16 | CC(=O)c1cc(-c2cc(O)cc(CC[C@H]3CCCCN3)c2)ccc1O | 1.51 µM | 2.04 µM | > 10 µM | 2.95 µM | 1.55 µM
17 | Cc1cc(C(=O)N[C@@H](C)c2nc(-c3cccnc3)cs2)cc(O)n1 | 1.74 µM | 2.24 µM | > 10 µM | 3.39 µM | 2.4 µM
18 | CCCC[C@H](Oc1ccc(C(C)(C)CC)cc1C(C)(C)CC)C(=O)Nc1ccc(NC(=O)C(F)(F)C(F)(F)C(F)(F)F)c(O)c1 | 2.95 µM | > 10 µM | > 10 µM | 7.24 µM | 3.72 µM
19 | Cc1oc2ncn(CCN3CCCC3)c(=O)c2c1C(=O)Nc1ccc(C#N)cc1 | 2.63 µM | 10.7 µM | > 10 µM | 2.75 µM | 6.46 µM
20 | O=C(Cc1ccc(N(Cc2cccc(F)c2)C(=O)C2CCCC2)cc1)NCCN1CCCC1 | 3.98 µM | 5.01 µM | > 10 µM | > 10 µM | > 10 µM
21 | Cc1cc(Br)cc(N[C@H](c2cccnc2)c2ncc[nH]2)c1 | 3.39 µM | > 10 µM | > 10 µM | 1.48 µM | > 10 µM
22 | CCN(CC)c1ccc(C(=O)Nc2ccc3nc(N4CCCC4)cc(C)c3c2)cc1 | 2 µM | 3.63 µM | > 10 µM | 4.27 µM | 3.63 µM
23 | O=C(NCc1ccccc1F)C1CCN(c2cncnc2N2CCCC2)CC1 | 3.55 µM | > 10 µM | > 10 µM | 8.71 µM | 7.24 µM
24 | CC(C)c1cc(=O)[nH]c(-n2nc(C3CC3)cc2NC(=O)Cc2ccc(Cl)cc2)n1 | 1.91 µM | 7.76 µM | > 10 µM | > 10 µM | 3.89 µM
25 | O=C1NCCCOc2cccc(c2)[C@H]2c3ccc(cc3CCN2C(=O)CCN2CCOCC2)Oc2ccc(O)c1c2 | 2.24 µM | 8.13 µM | > 10 µM | > 10 µM | 4.07 µM

Row | Compound | IC50 (Plasmodium falciparum [1]) | IC50 (Plasmodium falciparum [2]) | IC50 at 72 h [3] | IC50 (Plasmodium falciparum [4]) | IC50 (Plasmodium falciparum [5])
26 | CC(C)c1cc(=O)[nH]c(-n2nc(C3CC3)cc2NC(=O)c2ccc(F)cc2)n1 | 0.708 µM | 6.46 µM | 10 µM | > 10 µM | 2.82 µM
27 | FC(F)Oc1ccc(-c2c[n+](-c3cccc(C(F)(F)F)c3)c3n2CCCCC3)cc1 | 2.45 µM | 2.14 µM | > 10 µM | > 10 µM | 8.91 µM
28 | O=C(Nc1nc2cccc(Cl)c2o1)c1cccc(F)c1 | 1.32 µM | 2 µM | > 10 µM | > 10 µM | 2.51 µM
29 | COc1ccccc1N(Cc1ccccc1)C1=NC(=[N+](Cc2ccccc2)c2ccccc2OC)c2ccccc21 | 2.82 µM | 6.03 µM | > 10 µM | 4.68 µM | 5.5 µM
30 | Nc1nc2c(s1)CN(CCc1ccccc1)CC2 | 3.98 µM | 6.92 µM | > 10 µM | > 10 µM | 5.62 µM
31 | Cc1cc(N(C)CCC2CC2)nc([C@H](C)N(C)CCC2CC2)n1 | 1.38 µM | 2.4 µM | > 10 µM | 7.94 µM | 2.19 µM
32 | O=C(Nc1nncs1)c1cccc(C(=O)Nc2nncs2)n1 | 1.95 µM | 3.24 µM | > 10 µM | > 10 µM | 3.31 µM
33 | COc1cc(F)c([C@H](C)NC(=O)N(C)Cc2ccco2)cc1OC | 1.86 µM | > 10 µM | > 10 µM | 0.891 µM | 10.7 µM
34 | O=C(c1cc2ccccc2[nH]1)N1CCc2sc(Cl)cc2C1 | 7.76 µM | > 10 µM | > 10 µM | 2.95 µM | > 10 µM
35 | c1ccc(C2=NN(c3ccc(-c4cc(-c5ccccc5)[n+](-c5ccccc5)c(-c5ccccc5)c4)cc3)[C@H](c3ccccc3)C2)cc1 | 0.631 µM | 1.32 µM | 4.07 µM | 2.19 µM | 0.955 µM
36 | Cc1ccc(-c2c[n+](-c3ccc(OC(F)F)cc3)c3n2CCCCC3)cc1 | 0.891 µM | 1.66 µM | > 10 µM | > 10 µM | 1.2 µM
37 | CN1CCC(N2CCC(CN(Cc3ccncc3)Cc3c(F)cccc3Cl)CC2)CC1 | 0.708 µM | 1.17 µM | > 10 µM | 1.74 µM | 0.603 µM
38 | CCC[N+]1(CC#C[C@@](O)(c2ccccc2)C2(C)CCCC2)CCCCC1 | 3.24 µM | 3.47 µM | > 10 µM | > 3.16 µM | 3.24 µM
39 | COc1ccc([C@H](NC(=O)CCc2ccccc2)c2c(O)ccc3ccccc23)cc1 | 2.45 µM | 9.33 µM | > 10 µM | 1.48 µM | 5.62 µM
40 | COc1nc(N2[C@@H]3CC[C@H]2C[C@@H](OC)C3)ncc1F | 4.07 µM | 6.17 µM | > 10 µM | > 10 µM | > 10 µM
41 | COc1nc(NC2CCS(=O)(=O)CC2)ncc1F | 0.0479 µM | 0.0832 µM | > 10 µM | > 10 µM | > 10 µM
42 | COCCCn1c(NS(=O)(=O)c2ccc3ccccc3c2)c(S(=O)(=O)c2ccc(C)cc2)c2nc3ccccc3nc21 | 2.34 µM | 6.76 µM | > 10 µM | 1.55 µM | 8.51 µM
43 | CCCOc1cccc2c(NC3CCN(CCOC)CC3)ccnc12 | 1.78 µM | 2.24 µM | > 10 µM | 3.24 µM | 1.58 µM
44 | CCNc1ccnc(NCc2nc(-c3cccc(F)c3)c(-c3ccccn3)[nH]2)n1 | 3.16 µM | 5.75 µM | > 10 µM | 8.71 µM | > 10 µM
45 | O=C(Nc1cccc(Cl)c1)Nc1cccc(-c2cnc3n2CCC3)c1 | 2.4 µM | 5.37 µM | > 10 µM | 5.89 µM | 3.89 µM
46 | C[C@@H](CNc1nc(-c2ccccc2)nc2nc(-c3ccc(Cl)cc3)oc12)N1CCCCC1 | 3.39 µM | 7.59 µM | > 10 µM | 9.55 µM | 5.89 µM
47 | O=C(CN1C=CCC=C1c1nc(-c2ccc(Br)cc2)cs1)c1ccccc1 | 2.63 µM | 3.47 µM | > 10 µM | 5.89 µM | 3.55 µM
48 | CC(=O)Nc1ccc(-c2cn3c4ccccc4ccc3[n+]2C)cc1 | 0.49 µM | 0.263 µM | > 10 µM | > 10 µM | 1.41 µM
49 | COc1ccc(-c2cc3ncc(C(=O)c4cc(Cl)ccc4O)cn3n2)cc1 | 2.29 µM | 3.89 µM | > 10 µM | 7.24 µM | 3.63 µM
